From patent US8063048B2, “Acetylenyl-pyrazolo-pyrimidine derivatives” (Hoffmann-La Roche Inc., priority 2005, dated 2011)

| Compound | melting point |
| --- | --- |
| CC(C)(CO)NS(=O)(=O)c1cccc(C#Cc2cnn3c(C(F)F)cc(-c4ccc(C(F)(F)F)cc4)nc23)c1 [Example 32, 3-[7-Difluoromethyl-5-(4-trifluoromethyl-phenyl)-pyrazolo[1,5-a]pyrimidin-3-ylethynyl]-N-(2-hydroxy-1,1-dimethyl-ethyl)-benzenesulfonamide] | 161 to 162 °C |
| Nc1ccc(C#Cc2cnc3c(F)cc(-c4ccc(C(F)(F)F)cc4)cn23)cn1 [Example 239, 5-[8-Fluoro-6-(4-trifluoromethyl-phenyl)-imidazo[1,2-a]pyridin-3-ylethynyl]-pyridin-2-ylamine] | 281 to 282 °C |
| COc1ccc(C#Cc2cnn3c(C(F)(F)F)cc(-c4ccc(C(F)(F)F)cc4)nc23)cn1 [Example 56, 3-(6-Methoxy-pyridin-3-ylethynyl)-7-trifluoromethyl-5-(4-trifluoromethyl-phenyl)-pyrazolo[1,5-a]pyrimidine] | 166 to 168 °C |
| O=S(=O)(NC(CO)CO)c1ccc(C#Cc2cnn3c(C(F)F)cc(-c4ccc(C(F)(F)F)cc4)nc23)s1 [Example 270, 5-[7-Difluoromethyl-5-(4-trifluoromethyl-phenyl)-pyrazolo[1,5-a]pyrimidin-3-ylethynyl]-thiophene-2-sulfonic acid (2-hydroxy-1-hydroxymethyl-ethyl)-amide] | 152 °C |
| NS(=O)(=O)c1ccc(C#Cc2cnn3c(C4CC4)cc(-c4ccc(C(F)(F)F)cc4)nc23)s1 [Example 83, 5-[7-Cyclopropyl-5-(4-trifluoromethyl-phenyl)-pyrazolo[1,5-a]pyrimidin-3-ylethynyl]-thiophene-2-sulfonic acid amide] | 231 to 233 °C |
| O=S(=O)(c1ccc(C#Cc2cnn3c(C(F)(F)F)cc(-c4cccc(C(F)(F)F)c4)nc23)s1)N(CCO)CCO [Example 266, 5-[7-Trifluoromethyl-5-(3-trifluoromethyl-phenyl)-pyrazolo[1,5-a]pyrimidin-3-ylethynyl]-thiophene-2-sulfonic acid bis-(2-hydroxy-ethyl)-amide] | 129 °C |
| Cc1cc(-c2ccc(Cl)cc2)nc2c(C#Cc3ccc(N)nc3)cnn12 [Example 295, 5-[5-(4-Chloro-phenyl)-7-methyl-pyrazolo[1,5-a]pyrimidin-3-ylethynyl]-pyridin-2-ylamine] | 244 to 246 °C |
| O=S(=O)(c1cccc(C#Cc2cnn3c(C(F)(F)F)cc(-c4ccc(C(F)(F)F)cc4)nc23)c1)N1CCOCC1 [Example 129, 3-[3-(morpholine-4-sulfonyl)-phenylethynyl]-7-trifluoromethyl-5-(4-trifluoromethyl-phenyl)-pyrazolo[1,5-a]pyrimidine] | 203 to 204 °C |
| Nc1ccc(C#Cc2cnn3c(C4CC4)cc(-c4ccc(C(F)(F)F)cc4)nc23)cn1 [Example 293, 5-[7-Cyclopropyl-5-(4-trifluoromethyl-phenyl)-pyrazolo[1,5-a]pyrimidin-3-ylethynyl]-pyridin-2-ylamine] | 228 to 231 °C |
| Cc1cc(-c2cc(C(F)(F)F)n3ncc(C#Cc4ccc(S(N)(=O)=O)s4)c3n2)ccc1Cl [Example 114, 5-[5-(4-Chloro-3-methyl-phenyl)-7-trifluoromethyl-pyrazolo[1,5-a]pyrimidin-3-ylethynyl]-thiophene-2-sulfonic acid amide] | 216 °C |
| CC(C)(CO)NS(=O)(=O)c1cncc(C#Cc2cnn3c(C4CC4)cc(-c4ccc(C(F)(F)F)cc4)nc23)c1 [Example 78, 5-[7-Cyclopropyl-5-(4-trifluoromethyl-phenyl)-pyrazolo[1,5-a]pyrimidin-3-ylethynyl]-pyridine-3-sulfonic acid (2-hydroxy-1,1-dimethyl-ethyl)-amide] | 190 to 191 °C |
| NS(=O)(=O)c1ccc(C#Cc2cnn3c(C4CC4)cc(-c4ccc(Cl)c(Cl)c4)nc23)cc1 [Example 88, 4-[7-Cyclopropyl-5-(3,4-dichloro-phenyl)-pyrazolo[1,5-a]pyrimidin-3-ylethynyl]-benzenesulfonamide] | 259 to 261 °C |
| Nc1ccc(C#Cc2cnn3c(CO)cc(-c4ccc(Cl)cc4)nc23)cn1 [Example 298, [3-(6-Amino-pyridin-3-ylethynyl)-5-(4-chloro-phenyl)-pyrazolo[1,5-a]pyrimidin-7-yl]-methanol] | 215 to 217 °C |
| Cc1ccc(C#Cc2cnn3c(C(F)F)cc(-c4ccc(C(F)(F)F)cc4)nc23)cc1S(N)(=O)=O [Example 60, 5-[7-Difluoromethyl-5-(4-trifluoromethyl-phenyl)-pyrazolo[1,5-a]pyrimidin-3-ylethynyl]-2-methyl-benzenesulfonamide] | 265 to 267 °C |
| Nc1ccc(C#Cc2cnn3c(C(F)(F)F)cc(-c4ccc(Cl)cc4)nc23)nn1 [Example 247, 6-[5-(4-Chloro-phenyl)-7-trifluoromethyl-pyrazolo[1,5-a]pyrimidin-3-ylethynyl]-pyridazin-3-ylamine] | 247 to 248 °C |
| CC(C)(CO)NS(=O)(=O)c1ccc(C#Cc2cnn3c(C(F)F)cc(-c4ccc(C(F)(F)F)cc4)nc23)s1 [Example 169, 5-[7-Difluoromethyl-5-(4-trifluoromethyl-phenyl)-pyrazolo[1,5-a]pyrimidin-3-ylethynyl]-thiophene-2-sulfonic acid (2-hydroxy-1,1-dimethyl-ethyl)-amide] | 157 °C |
| FC(F)(F)c1ccc(-c2cc(C(F)(F)F)n3ncc(C#Cc4ccccc4)c3n2)cc1 [Example 62, 3-Phenylethynyl-7-trifluoromethyl-5-(4-trifluoromethyl-phenyl)-pyrazolo[1,5-a]pyrimidine] | 144 to 145 °C |
| COc1ccc(C#Cc2cnn3c(C4CC4)cc(-c4ccc(Cl)cc4)nc23)cc1S(=O)(=O)NC(C)(C)CO [Example 69, 5-[5-(4-Chloro-phenyl)-7-cyclopropyl-pyrazolo[1,5-a]pyrimidin-3-ylethynyl]-N-(2-hydroxy-1,1-dimethyl-ethyl)-2-methoxy-benzenesulfonamide] | 253 to 256 °C |
| CC(C)(CO)NS(=O)(=O)c1cccc(C#Cc2cnn3c(C4CC4)cc(-c4ccc(Cl)cc4)nc23)c1 [Example 65, 3-[5-(4-Chloro-phenyl)-7-cyclopropyl-pyrazolo[1,5-a]pyrimidin-3-ylethynyl]-N-(2-hydroxy-1,1-dimethyl-ethyl)-benzenesulfonamide] | 202 to 204 °C |
| OCc1ccc(C#Cc2cnn3c(C(F)(F)F)cc(-c4ccc(C(F)(F)F)cc4)nc23)cc1 [Example 184, {4-[7-Trifluoromethyl-5-(4-trifluoromethyl-phenyl)-pyrazolo[1,5-a]pyrimidin-3-ylethynyl]-phenyl}-methanol] | 200 to 202 °C |
| CC(C)(CO)NS(=O)(=O)c1cnc(C#Cc2cnn3c(C4CC4)cc(-c4ccc(C(F)(F)F)cc4)nc23)s1 [Example 82, 2-[7-Cyclopropyl-5-(4-trifluoromethyl-phenyl)-pyrazolo[1,5-a]pyrimidin-3-ylethynyl]-thiazole-5-sulfonic acid (2-hydroxy-1,1-dimethyl-ethyl)-amide] | 243 to 245 °C |
| CC(C)(CO)NS(=O)(=O)c1cnc(C#Cc2cnn3c(C(F)(F)F)cc(-c4ccc(Cl)c(Cl)c4)nc23)s1 [Example 90, 2-[5-(3,4-Dichloro-phenyl)-7-trifluoromethyl-pyrazolo[1,5-a]pyrimidin-3-ylethynyl]-thiazole-5-sulfonic acid (2-hydroxy-1,1-dimethyl-ethyl)-amide] | 220 to 223 °C |
| NC(=O)c1ccc(C#Cc2cnn3c(C(F)(F)F)cc(-c4ccc(C(F)(F)F)cc4)nc23)cc1 [Example 197, 4-[7-Trifluoromethyl-5-(4-trifluoromethyl-phenyl)-pyrazolo[1,5-a]pyrimidin-3-ylethynyl]-benzamide] | 260 °C |
| Cc1ccc(C#Cc2cnn3c(C(F)(F)F)cc(-c4ccc(C(F)(F)F)cc4)nc23)cc1S(N)(=O)=O [Example 35, 2-Methyl-5-[7-trifluoromethyl-5-(4-trifluoromethyl-phenyl)-pyrazolo[1,5-a]pyrimidin-3-ylethynyl]-benzenesulfonamide] | 255 to 267 °C |
| CCOc1cc(-c2cc(C(F)(F)F)n3ncc(C#Cc4ccc(N)nc4)c3n2)ccc1C(F)(F)F [Example 189, 5-[5-(3-Ethoxy-4-trifluoromethyl-phenyl)-7-trifluoromethyl-pyrazolo[1,5-a]pyrimidin-3-ylethynyl]-pyridin-2-ylamine] | 218 °C |
| Cc1nc(N)ccc1C#Cc1cnn2c(C(F)F)cc(-c3ccc(C(F)(F)F)cc3)nc12 [Example 143, 5-[7-Difluoromethyl-5-(4-trifluoromethyl-phenyl)-pyrazolo[1,5-a]pyrimidin-3-ylethynyl]-6-methyl-pyridin-2-ylamine] | 243 to 246 °C |
| Cc1cc(-c2cc(C(F)F)n3ncc(C#Cc4ccc(S(=O)(=O)NC(C)(C)CO)s4)c3n2)ccc1Cl [Example 175, 5-[5-(4-Chloro-3-methyl-phenyl)-7-difluoromethyl-pyrazolo[1,5-a]pyrimidin-3-ylethynyl]-thiophene-2-sulfonic acid (2-hydroxy-1,1-dimethyl-ethyl)-amide] | 145 °C |
| NS(=O)(=O)c1ccc(C#Cc2cnc3c(C(F)(F)F)cc(-c4ccc(C(F)(F)F)cc4)cn23)cc1 [Example 181, 4-[8-Trifluoromethyl-6-(4-trifluoromethyl-phenyl)-imidazo[1,2-a]pyridin-3-ylethynyl]-benzenesulfonamide] | 278 to 280 °C |
| CN(C)CCNS(=O)(=O)c1ccc(C#Cc2ncn3c(C(F)(F)F)cc(-c4ccc(C(F)(F)F)cc4)nc23)s1 [Example 267, 5-[4-Trifluoromethyl-2-(4-trifluoromethyl-phenyl)-imidazo[1,5-a]pyrimidin-8-ylethynyl]-thiophene-2-sulfonic acid (2-dimethylamino-ethyl)-amide] | 178 °C |
| CN(C)CCNS(=O)(=O)c1ccc(C#Cc2cnn3c(C(F)(F)F)cc(-c4ccc(C(F)(F)F)cc4)nc23)cc1 [Example 126, N-(2-Dimethylamino-ethyl)-4-[7-trifluoromethyl-5-(4-trifluoromethyl-phenyl)-pyrazolo[1,5-a]pyrimidin-3-ylethynyl]-benzenesulfonamide] | 193 to 194 °C |
